Assay [1] deals with T1, Full length human recombinant HDAC11 (Homo sapiens, UniProt Q96DB2).
T1 construct: Full length human recombinant HDAC6 and HDAC11 proteins were expressed in baculoviral system
T1 sequence (Q96DB2 1-347): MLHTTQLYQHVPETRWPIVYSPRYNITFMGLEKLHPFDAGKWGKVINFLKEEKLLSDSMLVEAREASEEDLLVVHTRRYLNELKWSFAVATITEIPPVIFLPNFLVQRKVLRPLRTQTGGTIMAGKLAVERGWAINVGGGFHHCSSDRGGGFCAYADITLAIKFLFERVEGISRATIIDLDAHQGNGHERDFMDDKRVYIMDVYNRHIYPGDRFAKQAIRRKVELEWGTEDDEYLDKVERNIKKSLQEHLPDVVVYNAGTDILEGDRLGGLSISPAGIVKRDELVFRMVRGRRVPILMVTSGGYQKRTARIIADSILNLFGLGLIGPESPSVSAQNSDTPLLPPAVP
Nature of the assay: In vitro histone deacetylase assay, enzymatic HDAC11 (electrophoretic mobility shift assay). The settings on record: 10 nM HDAC11; 2 μM peptide substrate FAM-RHKK(tri-fluor-Ac)—NH2; 25° C.; 12 concentrations; read-out: HDAC11 Activity Range (IC50). It counts as biochemical. On the procedure:
(§1) The enzymatic HDAC6 and HDAC11 assays were performed using electrophoretic mobility shift assay. Full length human recombinant HDAC6 and HDAC11 proteins were expressed in baculoviral system and purified by affinity chromatography. The enzymatic reactions were assembled in 384 well plates in a total volume of 25 μL in a reaction buffer composing: 100 mM HEPES, pH 7.5, 25 mM KCl, 0.1% bovine serum albumin, 0.01% Triton X-100, 1% DMSO (from compounds) 2 μM of the fluorescently labeled peptide substrate and enzyme. The enzymes were added at a final concentration of 1 nM for HDAC6, and 10 nM for HDAC11. The peptide substrate FAM-RHKK(Ac)—NH2 was used for HDAC6, and FAM-RHKK(tri-fluor-Ac)—NH2 for HDAC11. The compounds were tested at 12 concentrations spaced by 3× dilution intervals. Negative control samples (0%-inhibition in the absence of inhibitor) and positive control samples (100%-inhibition) were assembled in replicates of four in each assay plate. The reactions were incubated at 25° C. and quenched by the addition of 45 μL of termination buffer (100 mM HEPES, pH 7.5, 0.01% Triton X-100, 0.05% SDS).
(§2) The terminated assay plates were analyzed on LabChip® 3000 microfluidic electrophoresis instrument (Perkin Elmer/Caliper Life Sciences). The fluorescence intensity of the electrophoretically separated de-acetylated product and substrate peptide was measured. Activity in each sample was determined as the product to sum ratio (PSR): P/(S+P), where P is the peak height of the product peptide and S is the peak height of the substrate peptide. Percent inhibition (Pinh) is determined using following equation:
(§3) Pinh=(PSR0%−PSRinh)/(PSR0%−PSR100%)*100, where PSRinh is the product sum ratio in the presence of inhibitor, PSR0% is the average product sum ration in the absence of inhibitor and PSR100% is the average product sum ratio in 100%-inhibition control samples. The IC50 values of inhibitors were determined by fitting the %-inhibition curves with 4 parameter dose-response model using XLfit 4 software.
(§4) As set forth in Table-26 and Table-27, below, IC5o values are defined as follows: IC50≦0.1 μM (+++); IC50>0.1 μM and ≦0.5 μM (++); IC50>0.5 μM (+).

Assay [2] deals with T2, Full length human recombinant HDAC6 (Homo sapiens, UniProt Q9UBN7).
T2 construct: Full length human recombinant HDAC6 and HDAC11 proteins were expressed in baculoviral system
T2 sequence (Q9UBN7 1-1215): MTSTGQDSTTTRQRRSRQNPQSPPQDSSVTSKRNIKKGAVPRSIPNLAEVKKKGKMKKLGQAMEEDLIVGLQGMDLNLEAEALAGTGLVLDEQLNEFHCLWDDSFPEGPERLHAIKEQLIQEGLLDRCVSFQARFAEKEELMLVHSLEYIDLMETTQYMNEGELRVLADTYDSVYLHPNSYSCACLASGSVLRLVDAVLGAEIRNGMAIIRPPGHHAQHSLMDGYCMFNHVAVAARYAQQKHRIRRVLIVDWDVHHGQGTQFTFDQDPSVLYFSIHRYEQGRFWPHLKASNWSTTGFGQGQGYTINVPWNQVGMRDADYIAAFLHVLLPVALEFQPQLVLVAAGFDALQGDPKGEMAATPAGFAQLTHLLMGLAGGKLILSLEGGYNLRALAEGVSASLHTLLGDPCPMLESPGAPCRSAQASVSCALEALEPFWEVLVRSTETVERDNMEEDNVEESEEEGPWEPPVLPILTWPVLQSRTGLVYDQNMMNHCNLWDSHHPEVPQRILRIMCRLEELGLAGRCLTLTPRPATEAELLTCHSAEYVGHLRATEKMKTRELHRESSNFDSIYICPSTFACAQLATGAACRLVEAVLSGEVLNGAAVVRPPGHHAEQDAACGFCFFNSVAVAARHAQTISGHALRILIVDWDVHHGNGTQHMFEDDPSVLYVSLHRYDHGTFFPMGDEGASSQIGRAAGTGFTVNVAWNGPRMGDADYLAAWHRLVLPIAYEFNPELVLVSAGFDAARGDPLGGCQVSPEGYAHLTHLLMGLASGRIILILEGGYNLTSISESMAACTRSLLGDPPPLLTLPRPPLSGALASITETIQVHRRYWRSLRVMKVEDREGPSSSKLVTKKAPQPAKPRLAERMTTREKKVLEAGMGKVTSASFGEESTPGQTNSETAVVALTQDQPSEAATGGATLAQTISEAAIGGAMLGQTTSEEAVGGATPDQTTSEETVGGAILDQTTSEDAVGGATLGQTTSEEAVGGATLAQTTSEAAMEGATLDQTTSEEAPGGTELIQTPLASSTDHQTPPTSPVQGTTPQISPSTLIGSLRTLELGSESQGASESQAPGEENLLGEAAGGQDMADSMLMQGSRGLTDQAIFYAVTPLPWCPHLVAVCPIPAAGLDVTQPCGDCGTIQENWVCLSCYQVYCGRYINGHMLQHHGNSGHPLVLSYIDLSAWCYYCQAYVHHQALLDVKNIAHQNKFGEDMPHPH
Nature of the assay: In vitro histone deacetylase assay, enzymatic HDAC6 (electrophoretic mobility shift assay). It counts as biochemical. The settings on record: 1 nM HDAC6; 2 μM peptide substrate FAM-RHKK(Ac)—NH2; 25° C.; 12 concentrations; read-out: HDAC6 Activity Range (IC50). On the procedure: as §1, §2, §3, §4

The values below come from patent US9637453B2, “3-spirocyclic-6-hydroxamic acid tetralins as HDAC inhibitors” (Forma Therapeutics, Inc., priority 2015, dated 2017).

Bounds are passed on as bounds.

Turning to `O=C(NO)c1ccc2c(c1)C[C@@]1(CC2)CCN(Cc2ccccc2C(F)(F)F)C1=O` [Compound I-60, (S)—N-hydroxy-2′-oxo-1′-(2-(trifluoromethyl)benzyl)-3,4-dihydro-1H-spiro[naphthalene-2,3′-pyrrolidine]-7-carboxamide], the IC50 in assay [1] was more than 500 nM; in assay [2] it was not above 100 nM.
The corresponding values for `O=C(NO)c1ccc2c(c1)C[C@]1(CC2)CCN(Cc2ccc3nonc3c2)C1=O` [Compound I-91, (R)-1′-(benzo[c][1,2,5]oxadiazol-5-ylmethyl)-N-hydroxy-2′-oxo-3,4-dihydro-1H-spiro[naphthalene-2,3′-pyrrolidine]-7-carboxamide] are not above 100 nM and not above 100 nM.
`O=C(NO)c1ccc2c(c1)C[C@]1(CC2)CCN(c2ccc3nccn3c2)C1=O` [Compound I-110, (R)—N-hydroxy-1′-(imidazo[1,2-a]pyridin-6-yl)-2′-oxo-3,4-dihydro-1H-spiro[naphthalene-2,3′-pyrrolidine]-7-carboxamide]: the results for the IC50 in assay [1] and in assay [2] were 100 to 500 nM and not above 100 nM, respectively.
Consider `O=C(NO)c1ccc2c(c1)C[C@]1(CC2)CCN(c2ccccc2)C1` [Compound I-17, (R)—N-hydroxy-1′-phenyl-3,4-dihydro-1H-spiro[naphthalene-2,3′-pyrrolidine]-7-carboxamide], for which the figures for the IC50 in assay [1] and in assay [2] were more than 500 nM and not above 100 nM, respectively.
The corresponding values for `O=C(NO)c1ccc2c(c1)C[C@@]1(CC2)CC(=O)N(c2ccccc2)C1` [Compound I-132, (S)—N-hydroxy-5′-oxo-1′-phenyl-3,4-dihydro-1H-spiro[naphthalene-2,3′-pyrrolidine]-7-carboxamide] are more than 500 nM and not above 100 nM.
The corresponding values for `O=C(NO)c1ccc2c(c1)C[C@@]1(CC2)CCN(Cc2cc(Cl)ccc2Cl)C1=O` [Compound I-67, (S)-1′-(2,5-dichlorobenzyl)-N-hydroxy-2′-oxo-3,4-dihydro-1H-spiro[naphthalene-2,3′-pyrrolidine]-7-carboxamide] are more than 500 nM and 100 to 500 nM.
In the same order, the values of `CC(C)N1C[C@]2(CCc3ccc(C(=O)NO)cc3C2)CC1=O` [Compound I-140, (S)—N-hydroxy-1′-isopropyl-5′-oxo-3,4-dihydro-1H-spiro[naphthalene-2,3′-pyrrolidine]-7-carboxamide] are more than 500 nM and not above 100 nM.
`O=C(NO)c1ccc2c(c1)C[C@]1(CC2)CCN(c2ccc(Oc3ccccc3)cc2)C1=O` [Compound I-106, (R)—N-hydroxy-2′-oxo-1′-(4-phenoxyphenyl)-3,4-dihydro-1H-spiro[naphthalene-2,3′-pyrrolidine]-7-carboxamide]: the IC50 in assay [1] and in assay [2] was not above 100 nM throughout.
Consider `COc1ccc(S(=O)(=O)N2CCC3(CCc4ccc(C(=O)NO)cc4C3)C2)cc1` (stereo not shown) [Compound I-2, N-hydroxy-1′-((4-methoxyphenyl)sulfonyl)-3,4-dihydro-1H-spiro[naphthalene-2,3′-pyrrolidine]-7-carboxamide], for which the IC50 in assay [1] was more than 500 nM; in assay [2] it was not above 100 nM.
For `O=C(NO)c1ccc2c(c1)C[C@@]1(CC2)CCN(c2ccc(Oc3ccccc3)cc2)C1=O` [Compound I-116, (S)—N-hydroxy-2′-oxo-1′-(4-phenoxyphenyl)-3,4-dihydro-1H-spiro[naphthalene-2,3′-pyrrolidine]-7-carboxamide], the figures for the IC50 in assay [1] and in assay [2] were more than 500 nM and not above 100 nM, respectively.
The corresponding values for `O=C(NO)c1ccc2c(c1)C[C@]1(CC2)CCN(c2cnc3ccccc3c2)C1=O` [Compound I-107, (R)—N-hydroxy-2′-oxo-1′-(quinolin-3-yl)-3,4-dihydro-1H-spiro[naphthalene-2, 3′-pyrrolidine]-7-carboxamide] are not above 100 nM and not above 100 nM.
The corresponding values for `O=C(NO)c1ccc2c(c1)C[C@@]1(CC2)CCN(Cc2c(Cl)cccc2Cl)C1=O` [Compound I-68, (S)-1′-(2,6-dichlorobenzyl)-N-hydroxy-2′-oxo-3,4-dihydro-1H-spiro[naphthalene-2,3′-pyrrolidine]-7-carboxamide] are more than 500 nM and not above 100 nM.
In the same order, the values of `COCCN1CC[C@]2(CCc3ccc(C(=O)NO)cc3C2)C1=O` [Compound I-84, (R)—N-hydroxy-1′-(2-methoxyethyl)-2′-oxo-3,4-dihydro-1H-spiro[naphthalene-2,3′-pyrrolidine]-7-carboxamide] are more than 500 nM and not above 100 nM.
On to `O=C(NO)c1ccc2c(c1)C[C@@]1(CC2)CCN(c2nc3ccccc3[nH]2)C1=O` [Compound I-31, (S)-1′-(1H-benzo[d]imidazol-2-yl)-N-hydroxy-2′-oxo-3,4-dihydro-1H-spiro[naphthalene-2,3′-pyrrolidine]-7-carboxamide], for which the IC50 in assay [1] was more than 500 nM; in assay [2] it was not above 100 nM.
On to `O=C(NO)c1ccc2c(c1)C[C@]1(CC2)CCN(Cc2ccccc2F)C1=O` [Compound I-103, (R)-1′-(2-fluorobenzyl)-N-hydroxy-2′-oxo-3,4-dihydro-1H-spiro[naphthalene-2,3′-pyrrolidine]-7-carboxamide], for which the concentration for half-maximal inhibition (IC50) in assay [1] and in assay [2] was not above 100 nM throughout.
Take `CC(=O)N1CCC2(CCc3ccc(C(=O)NO)cc3C2)C1` (stereo not shown) [Compound I-12, 1′-acetyl-N-hydroxy-3,4-dihydro-1H-spiro[naphthalene-2,3′-pyrrolidine]-7-carboxamide]: the 50% inhibitory concentration (IC50) in assay [1] is more than 500 nM; in assay [2], not above 100 nM.
The corresponding values for `O=C(NO)c1ccc2c(c1)C[C@@]1(CC2)CCN(Cc2ccccn2)C1=O` [Compound I-71, (S)—N-hydroxy-2′-oxo-1′-(pyridin-2-ylmethyl)-3,4-dihydro-1H-spiro[naphthalene-2,3′-pyrrolidine]-7-carboxamide] are more than 500 nM and not above 100 nM.
